The record followed here is EP4617278A1, “NUCLEOTIDE ANALOG, AND COMPOSITION AND USE THEREOF” (priority 2022, dated 2024).

Some results are limits rather than exact numbers.

The test system of this test is SARS-CoV-2 replicon. In kind it is cell-based. The settings on record: read-out: SARS-CoV-2 Replicon (Huh-7cell) EC50.
Turning to `CC(C)OC(=O)OCO[P@@](=O)(N[C@@H](C)C(=O)OC(C)C)OC[C@H]1O[C@@](C#N)(c2ccc3c(N)ncnn23)[C@H](OC(=O)C(C)(C)C)[C@@H]1OC(=O)C(C)(C)C` [Compound 4a, (2R,3R,4R,5R)-2-(4-aminopyrrolo[2,1-f][1,2,4]triazin-7-yl)-2-cyano-5-((((R)-(((S)-1-isopropoxy-1-oxopropan-2-yl)amino)(((isopropoxycarbonyl)oxy)methoxy)phosphoryl)oxy)methyl)tetrahydrofuran-3,4-diyl bis(2,2-dimethylpropionate)], the EC50 (in general, the concentration that produces a half-maximal response) was 50 to 500 nM.

As to `CCC(CC)COC(=O)C[C@H](N[P@@](=O)(OC[C@H]1O[C@@](C#N)(c2ccc3c(N)ncnn23)[C@H](OC(=O)C(C)C)[C@@H]1OC(=O)C(C)C)Oc1ccccc1)C(=O)OCC(CC)CC` [Compound 62a, (2R,3R,4R,5R)-2-(4-aminopyrrolo[2,1-f][1,2,4]triazin-7-yl)-2-cyano-5-((((R)-(((S)-1,4-bis(2-ethylbutoxy)-1,4-dioxobutan-2-yl)amino)(phenoxy)phosphoryl)oxy)methyl)tetrahydrofuran-3,4-diyl bis(2-methylpropionate)], the EC50 lay within 50 to 500 nM.

Turning to `CC(C)OC(=O)OCOP(=O)(OCOC(=O)OC(C)C)OC[C@H]1O[C@@](C#N)(c2ccc3c(N)ncnn23)[C@H](OC(=O)C(C)C)[C@@H]1OC(=O)C(C)C` [Compound 19, (2R,3R,4R,5R)-2-(4-aminopyrrolo[2,1-f][1,2,4]triazin-7-yl)-5-((((bis(((isopropoxycarbonyl)oxy)methoxy))phosphoryl)oxy)methyl)-2-cyanotetrahydrofuran-3,4-diyl bis(2-methylpropionate)], the EC50 was under 5 nM.

Regarding `CCC(CC)COC(=O)[C@H](Cc1ccccc1)N[P@@](=O)(OCOC(=O)OC(C)C)OC[C@H]1O[C@@](C#N)(c2ccc3c(N)ncnn23)[C@H](OC(=O)C(C)C)[C@@H]1OC(=O)C(C)C` [Compound 31b, (2R,3R,4R,5R)-2-(4-aminopyrrolo[2,1-f][1,2,4]triazin-7-yl)-2-cyano-5-((((S)-(((S)-1-(2-ethylbutoxy)-1-oxo-3-phenylpropan-2-yl)amino)(((isopropoxycarbonyl)oxy)methoxy)phosphoryl)oxy)methyl)tetrahydrofuran-3,4-diyl bis(2-methylpropionate)], the EC50 fell in the range of 10 to 50 nM.

Take `CC(C)C(=O)OCOP(=O)(OCOC(=O)C(C)C)OC[C@H]1O[C@@](C#N)(c2ccc3c(N)ncnn23)[C@H](OC(=O)C(C)C)[C@@H]1OC(=O)C(C)C` [Compound 45]: the EC50 is at most 5 nM.

Regarding “(2R,3R,4R,5R)-2-(4-aminopyrrolo[2,1-f][1,2,4]triazin-7-yl)-2-cyano-5-((((R)-(((S)-1-(2-ethylbutoxy)-1-oxopropan-2-yl)amino)(((isopropoxycarbonyl)oxy)methoxy)phosphoryl)oxy)methyl)tetrahydrofuran-3,4-diyl diacetate [Compound 5a]”, the EC50 lay in the range of 50 to 500 nM.

With `CCC(CC)COC(=O)[C@H](Cc1ccccc1)N[P@](=O)(OC[C@H]1O[C@@](C#N)(c2ccc3c(N)ncnn23)[C@H](OC(=O)C(C)C)[C@@H]1OC(=O)C(C)C)Oc1ccccc1` [Compound 41b, (2R,3R,4R,5R)-2-(4-aminopyrrolo[2,1-f][1,2,4]triazin-7-yl)-2-cyano-5-((((S)-(((S)-1-(2-ethylbutoxy)-1-oxo-3-phenylpropan-2-yl)amino)(phenoxy)phosphoryl)oxy)methyl)tetrahydrofuran-3,4-diyl bis(2-methylpropionate)], the half-maximal effective concentration (EC50) was 5 to 10 nM.

Regarding `CCCCC/C=C\C/C=C\CCCCCCCCOC(=O)[C@H](C)NP(=O)(OCOC(=O)C(C)(C)C)OC[C@H]1O[C@@](C#N)(c2ccc3c(N)ncnn23)[C@H](OC(=O)C(C)C)[C@@H]1OC(=O)C(C)C` (stereo partly drawn) [Compound 51, (2R,3R,4R,5R)-2-(4-aminopyrrolo[2,1-f][1,2,4]triazin-7-yl)-2-cyano-5-((((((S)-1-(((9Z,12Z)-octadeca-9,12-dien-1-yl)oxy)-1-oxopropan-2-yl)amino)((pivaloyloxy)methoxy)phosphoryl)oxy)methyl)tetrahydrofuran-3,4-diyl bis(2-methylpropionate)], the EC50 fell in the range of 50 to 500 nM.

On to `[2H]c1cc([C@]2(C#N)O[C@H](COP(=O)(OCOC(=O)OC(C)C)OCOC(=O)OC(C)C)[C@@H](OC(=O)C(C)C)[C@H]2OC(=O)C(C)C)n2ncnc(N)c12` [Compound 21, (2R,3R,4R,5R)-2-(4-amino-5-deuteriopyrrolo[2,1-f][1,2,4]triazin-7-yl)-5-((((bis(((isopropoxycarbonyl)oxy)methoxy))phosphoryl)oxy)methyl)-2-cyanotetrahydrofuran-3,4-diyl bis(2-methylpropionate)], for which the concentration giving a half-maximal response (EC50) was under 5 nM.

With `COC(C)(C)COC(=O)[C@H](Cc1ccccc1)N[P@](=O)(OC[C@H]1O[C@@](C#N)(c2ccc3c(N)ncnn23)[C@H](OC(=O)C(C)C)[C@@H]1OC(=O)C(C)C)Oc1ccccc1` [Compound 64b, (2R,3R,4R,5R)-2-(4-aminopyrrolo[2,1-f][1,2,4]triazin-7-yl)-2-cyano-5-((((S)-(((S)-1-(2-methoxy-2-methylpropoxy)-1-oxo-3-phenylpropan-2-yl)amino)(phenoxy)phosphoryl)oxy)methyl)tetrahydrofuran-3,4-diyl bis(2-methylpropionate)], the EC50 is under 5 nM.

Turning to `CCC(CC)COC(=O)[C@H](C)N[P@](=O)(OCOC(=O)C(C)(C)C)OC[C@H]1O[C@@](C#N)(c2ccc3c(N)ncnn23)[C@H](OC(C)=O)[C@@H]1OC(C)=O` [Compound 9a, (2R,3R,4R,5R)-2-(4-aminopyrrolo[2,1-f][1,2,4]triazin-7-yl)-2-cyano-5-((((R)-(((S)-1-(2-ethylbutoxy)-1-oxopropan-2-yl)amino)((pivaloyloxy)methoxy)phosphoryl)oxy)methyl)tetrahydrofuran-3,4-diyl diacetate], the EC50 was in the range of 5 to 10 nM.

With `CC(C)OC(=O)OCO[P@@](=O)(OC[C@H]1O[C@@](C#N)(c2ccc3c(N)ncnn23)[C@H](OC(=O)C(C)C)[C@@H]1OC(=O)C(C)C)Oc1ccc(C(C)(C)C)cc1` [Compound 24a, (2R,3R,4R,5R)-2-(4-aminopyrrolo[2,1-f][1,2,4]triazin-7-yl)-5-((((S)-(4-tert-butylphenoxy)(((isopropoxycarbonyl)oxy)methoxy)phosphoryl)oxy)methyl)-2-cyanotetrahydrofuran-3,4-diyl bis(2-methylpropionate)], the EC50 is under 5 nM.

As for `CC(C)C(=O)O[C@H]1[C@@H](OC(=O)C(C)C)[C@](C#N)(c2ccc3c(N)ncnn23)O[C@@H]1CO[P@](=O)(OCOC(=O)C(C)(C)C)Oc1ccc(C(C)(C)C)cc1` [Compound 44a, (2R,3R,4R,5R)-2-(4-aminopyrrolo[2,1-f][1,2,4]triazin-7-yl)-5-(((((S)-4-tert-butylphenoxy)(((tert-butylcarbonyl)oxy)methoxy)phosphoryl)oxy)methyl)-2-cyanotetrahydrofuran-3,4-diyl bis(2-methylpropionate)], the EC50 fell in the range of 5 to 10 nM.

`CCC(CC)COC(=O)[C@H](Cc1ccccc1)N[P@](=O)(OC[C@H]1O[C@@](C#N)(c2ccc3c(N)ncnn23)[C@H](OC(=O)C(C)C)[C@@H]1OC(=O)C(C)C)Oc1ccc(C(C)(C)C)cc1` [Compound 53b, (2R,3R,4R,5R)-2-(4-aminopyrrolo[2,1-f][1,2,4]triazin-7-yl)-2-cyano-5-((((((S)-1-(2-ethylbutoxy)-1-oxo-3-phenylpropan-2-yl)amino)((S)-4-tert-butylphenoxy)phosphoryl)oxy)methyl)tetrahydrofuran-3,4-diyl bis(2-methylpropionate)]: the EC50 fell in the range of 10 to 50 nM.

For `CCCCCOC(=O)C[C@H](N[P@](=O)(OC[C@H]1O[C@@](C#N)(c2ccc3c(N)ncnn23)[C@H](OC(=O)C(C)C)[C@@H]1OC(=O)C(C)C)Oc1ccccc1)C(=O)OCCCCC` [Compound 38b, (2R,3R,4R,5R)-2-(4-aminopyrrolo[2,1-f][1,2,4]triazin-7-yl)-2-cyano-5-((((S)-(((S)-1,4-dipentyloxy-1,4-dioxobutan-2-yl)amino)(phenoxy)phosphoryl)oxy)methyl)tetrahydrofuran-3,4-diyl bis(2-methylpropionate)], the EC50 fell in the range of 10 to 50 nM.

On to `CC(C)C(=O)O[C@H]1[C@@H](OC(=O)C(C)C)[C@](C#N)(c2ccc3c(N)ncnn23)O[C@@H]1COP(=O)(OCCSC(=O)C(C)(C)C)Oc1ccc(C(C)(C)C)cc1` (mixture of isomers) [Compound 27, (2R,3R,4R,5R)-2-(4-aminopyrrolo[2,1-f][1,2,4]triazin-7-yl)-5-((((4-tert-butylphenoxy)(2-(pivaloylthio)ethoxy)phosphoryl)oxy)methyl)-2-cyanotetrahydrofuran-3,4-diyl bis(2-methylpropionate)], for which the EC50 fell in the range of 10 to 50 nM.

Turning to `CC(=O)OCO[P@@](=O)(OC[C@H]1O[C@@](C#N)(c2ccc3c(N)ncnn23)[C@H](OC(=O)C(C)C)[C@@H]1OC(=O)C(C)C)Oc1ccc(C(C)(C)C)cc1` [Compound 43a, (2R,3R,4R,5R)-2-(4-aminopyrrolo[2,1-f][1,2,4]triazin-7-yl)-5-(((((S)-acetoxylmethoxy)(4-tert-butylphenoxy)phosphoryl)oxy)methyl)-2-cyanotetrahydrofuran-3,4-diyl bis(2-methylpropionate)], the EC50 fell in the range of 5 to 10 nM.

On to `CCCCCCCCCCCCCCCCOCCCOP(=O)(OCOC(=O)OC(C)C)OC[C@H]1O[C@@](C#N)(c2ccc3c(N)ncnn23)[C@H](OC(=O)C(C)C)[C@@H]1OC(=O)C(C)C` (mixture of isomers) [Compound 36, (2R,3R,4R,5R)-2-(4-aminopyrrolo[2,1-f][1,2,4]triazin-7-yl)-2-cyano-5-((((3-(hexadecyloxy)propoxy)(((isopropoxycarbonyl)oxy)methoxy)phosphoryl)oxy)methyl)tetr ahydrofuran-3,4-diyl bis(2-methylpropionate)], for which the EC50 was 50 to 500 nM.

As for `CC(C)C(=O)O[C@H]1[C@@H](OC(=O)C(C)C)[C@](C#N)(c2ccc3c(N)ncnn23)O[C@@H]1CO[P@@](=O)(N[C@@H](Cc1ccccc1)C(=O)OC1CCC1)Oc1ccccc1` [Compound 63b, (2R,3R,4R,5R)-2-(4-aminopyrrolo[2,1-f][1,2,4]triazin-7-yl)-2-cyano-5-((((S)-(((S)-1-cyclobutoxy-1-oxo-3-phenylpropan-2-yl)amino)(phenoxy)phosphoryl)oxy)methyl)tetrahydrofuran-3,4-diyl bis(2-methylpropionate)], the EC50 was under 5 nM.
